System: Lgr6-positive HFSCs
Assay: Distribution of Lgr6-positive HFSCs at HE tissue at day 4 post skin wounding, immunohistochemistry
Assay type: in vivo, C57L/B6 mice
Conditions: wounds treated for 4 days
Excerpt: FIGS. 10A and 10B illustrate histological analysis of the distribution of HFSCs at day 4 post-skin wounding. FIG. 10A provides photographs in which specimens were immunehistologically stained with Lgr6 to observe HFSC-derived cells at HE tissue and counterstained with hematoxylin to observe nuclei. Original magnification, ×400. FIG. 10B presents photographs in which sections of 20-mer ointment-treated wound were stained with BrdU- and Lgr6-specific antibodies. Lgr6 is expressed in the cell nucleus as confirmed by Hoechst 33258 counterstaining.
To perform full-thickness skin excision, 8- to 10-week-old C57L/B6 mice were respectively anesthetized by an intraperitoneal injection of a mixture of zoletil (6 mg/kg) and xylazine (3 mg/kg). Two full-thickness skin excisional wounds, 4 mm in diameter were made on either side of the dorsal midline using Sklar Tru-Punch disposable biopsy punch (Sklar, West Chester, Pa., USA). In each treatment group (n=6), the skin wound was treated with 25 μl skin ointment (containing 50 μM synthetic peptide and 0.006 μl DMSO vehicle) once daily after the skin scraping. In the control group (n=6), skin wound was treated with 25 μl of skin ointment with equal concentration of DMSO. Each gram of the above skin ointment contains 5 mg neomycin sulfate and 12.5 mg Bacitracin Zinc. Wounds were left uncovered and harvested 4 and 7 days after injury. […]

Sequence: SLGAEQRTESIIHRALYYDL [20-mer, synthetic peptide identical to residues 11-30 of the 39-mer]
- Lgr6-positive cells at HE tissue versus control wound: markedly increased

Reference: patent US9617311B2, “Use of PEDF-derived polypeptides for promoting stem cells proliferation and wound healing” (Mackay Memorial Hospital, priority 2011, dated 2017)
